Results: patent publication US7601745B2, “Heterocyclic NF-kB inhibitors” (4SC AG, priority 2004, dated 2009)

Test system: A549-NF-κB-SEAP reporter cells
Assay: Inhibition of NF-κB-induced inflammation ([…] NINA Instant Assay, SEAP reporter)
Assay type: cell-based
Conditions: NF-κB inflammation assay
Text: For the determination of anti-inflammatory activity of the compounds the […]® NINA Instant Assay from Cell Culture Service GmBH was used. This assay is based on recombinant A549-NF-κB-SEAP reporter cells preseeded in 96-well flat bottom plates. As the transfected reportergen for SEAP (secreted embryonic alkaline phosphatase) is under transcriptional control of a NF-κB-responsive element, the expression of this reporter is activated upon stimulation with TNF-α. SEAP secretion into the culture supernatant can be detected by the chemiluminescent substrate CSPD®. Test compounds that inhibit the NF-κB activation show reduced SEAP activity and reduced luminescent readout.
Following 18 h of reactivation at 37° C., 5% CO2 and 90% relative humidity, the cells were incubated with 0.01 up to 100 μM of test compound for 4.5 h before stimulation with 2 ng/ml TNF-α. After stimulation with TNF-α for 22 h endogenous phosphatases were inactivated and CSPD® substrate was supplied for 40 min. SEAP activity then was quantified by measuring luminescence as relative light units (RLU) using a Tecan Ultra reader. Each data point was recorded in quadruplicates and EC50 values were calculated via fitting function and the Microsoft Excel Solver.

SMILES	Biological activity (inhibition in the NF-κB inflammation assay)
N=C(NC(=O)c1csc(N2CCOCC2)n1)Nc1nc2ccccc2[nH]1 [compound 91]	+ (“+” stands for 50-80% inhibition)

Same assay, conditions: compounds of formula (I); TNF-α stimulated reporter cells; test concentration not given

SMILES	Biological activity (NF-κB inflammation assay, inhibition)
O=C(c1csc(C2CCN(C(=O)c3ccccc3OC(F)(F)F)CC2)n1)N1CCN(c2nc3ccccc3n2Cc2ccc(F)cc2)CC1 [compound 98]	+++ (“+++” stands for 90-100% inhibition)
O=C(c1csc(C2CCN(Cc3ccncc3)CC2)n1)N1CCN(c2cccc(C(F)(F)F)c2)CC1 [compound 107]	+ (“+” stands for 50-80% inhibition)
O=C(c1csc(C2CCN(Cc3ccccc3OC(F)(F)F)CC2)n1)N1CCN(c2cccc(C(F)(F)F)c2)CC1 [compound 109]	+ (“+” stands for 50-80% inhibition)
O=C(c1csc(C2CCN(C(=O)c3ccccc3OC(F)(F)F)CC2)n1)N(Cc1ccc(Cl)cc1)Cc1ccc(Cl)cc1 [compound 110]	+ (“+” stands for 50-80% inhibition)
O=C(c1csc(C2CCN(C(=O)c3ccccc3OC(F)(F)F)CC2)n1)N1CCC(n2nnc3ccccc32)CC1 [compound 111]	+ (“+” stands for 50-80% inhibition)
N#Cc1ccc(N2CCC(c3nc(C(=O)N4CCN(c5cccc(C(F)(F)F)c5)CC4)cs3)CC2)cc1 [compound 112]	+ (“+” stands for 50-80% inhibition)
O=C(O)N1CCC(c2nc(C(=O)N3CCN(c4cccc(C(F)(F)F)c4)CC3)cs2)CC1 [compound 113]	+ (“+” stands for 50-80% inhibition)
O=C(c1csc(C2CCN(Cc3cccc(OC(F)(F)F)c3)CC2)n1)N1CCN(c2cccc(C(F)(F)F)c2)CC1 [compound 115]	++ (“++” means 80-90%)
CS(=O)(=O)c1ccc(N2CCC(c3nc(C(=O)N4CCN(c5cccc(C(F)(F)F)c5)CC4)cs3)CC2)cc1 [compound 117]	+ (“+” stands for 50-80% inhibition)
O=C(c1csc(C2CCN(c3cc(C(F)(F)F)ccn3)CC2)n1)N1CCN(c2cccc(C(F)(F)F)c2)CC1 [compound 118]	+ (“+” stands for 50-80% inhibition)
O=C(c1csc(C2CCN(c3ccccc3)CC2)n1)N1CCN(c2cccc(C(F)(F)F)c2)CC1 [compound 119]	+ (“+” stands for 50-80% inhibition)
COc1nc(OC)nc(N2CCN(C(=O)c3csc(C4CCN(Cc5ccccc5)CC4)n3)CC2)n1 [compound 120]	+ (“+” stands for 50-80% inhibition)
COc1nc(OC)nc(N2CCN(C(=O)c3csc(C4CCN(Cc5ccc(Br)cc5)CC4)n3)CC2)n1 [compound 121]	+ (“+” stands for 50-80% inhibition)
O=C(c1csc(C2CCN(c3ccccn3)CC2)n1)N1CCN(c2cccc(C(F)(F)F)c2)CC1 [compound 123]	++ (“++” means 80-90%)
CSc1nccc(N2CCN(C(=O)c3csc(C4CCN(C(=O)c5ccccc5OC(F)(F)F)CC4)n3)CC2)n1 [compound 124]	+ (“+” stands for 50-80% inhibition)
COc1nc(OC)nc(N2CCN(C(=O)c3csc(C4CCN(C(=O)Cc5ccc(F)cc5)CC4)n3)CC2)n1 [compound 126]	+ (“+” stands for 50-80% inhibition)
COc1nc(OC)nc(N2CCN(C(=O)c3csc(C4CCN(C(=O)c5ccccc5OC(F)(F)F)CC4)n3)CC2)n1 [compound 127]	+ (“+” stands for 50-80% inhibition)
O=C(c1csc(C2CCN(C(=O)c3ccccc3OC(F)(F)F)CC2)n1)N1CCN(c2ncnc3nc[nH]c23)CC1 [compound 129]	+ (“+” stands for 50-80% inhibition)
COc1cc(N2CCN(C(=O)c3csc(C4CCN(C(=O)c5ccccc5OC(F)(F)F)CC4)n3)CC2)nc(OC)n1 [compound 130]	+ (“+” stands for 50-80% inhibition)
CC(c1cc2ccccc2[nH]1)N(C)C(=O)c1csc(C2CCN(C(=O)c3ccccc3OC(F)(F)F)CC2)n1 (stereo not shown) [compound 145]	+ (“+” stands for 50-80% inhibition)
CN(C(=O)c1csc(C2CCN(C(=O)c3ccccc3OC(F)(F)F)CC2)n1)C(CN1CCOCC1)c1ccccc1 (stereo not shown) [compound 147]	+ (“+” stands for 50-80% inhibition)
O=C(c1csc(C2CCN(C(=O)c3ccccc3OC(F)(F)F)CC2)n1)N(CCO)Cc1ccccc1 [compound 148]	++ (“++” means 80-90%)

Same assay, conditions: compounds of formula (II); TNF-α stimulated reporter cells; test concentration not given

SMILES	Biological activity (NF-κB inflammation assay, inhibition)
O=C(NCC1CCN(c2nc(C(=O)N3CCN(c4cccc(C(F)(F)F)c4)CC3)cs2)CC1)c1ccc(C(F)(F)F)c(F)c1 [compound 99]	+ (“+” stands for 50-80% inhibition)
O=C(CCC1CCCC1)NCC1CCN(c2nc(C(=O)N3CCN(c4cccc(C(F)(F)F)c4)CC3)cs2)CC1 [compound 100]	+ (“+” stands for 50-80% inhibition)
O=C(NCC1CCN(c2nc(C(=O)N3CCN(c4cccc(C(F)(F)F)c4)CC3)cs2)CC1)c1ccccc1OC(F)(F)F [compound 101]	+ (“+” stands for 50-80% inhibition)
N#Cc1ccc(C(=O)NCC2CCN(c3nc(C(=O)N4CCN(c5cccc(C(F)(F)F)c5)CC4)cs3)CC2)cc1 [compound 102]	+ (“+” stands for 50-80% inhibition)

Same assay, conditions: compounds of formula (Ia); TNF-α stimulated reporter cells; test concentration not given

SMILES	Biological activity (NF-κB inflammation assay, inhibition)
O=C(NCCc1cccs1)N1CCC(c2nc(C(=O)N3CCN(c4cccc(C(F)(F)F)c4)CC3)cs2)CC1 [compound 77]	+++ (“+++” stands for 90-100% inhibition)
CC(C)NC(=O)N1CCC(c2nc(C(=O)N3CCN(c4cccc(C(F)(F)F)c4)CC3)cs2)CC1 [compound 78]	+ (“+” stands for 50-80% inhibition)
O=C(Nc1ccccc1OC(F)(F)F)N1CCC(c2nc(C(=O)N3CCN(c4cccc(C(F)(F)F)c4)CC3)cs2)CC1 [compound 79]	+++ (“+++” stands for 90-100% inhibition)
COc1cccc(NC(=O)N2CCC(c3nc(C(=O)N4CCN(c5cccc(C(F)(F)F)c5)CC4)cs3)CC2)c1 [compound 80]	+ (“+” stands for 50-80% inhibition)
COc1cc(NC(=O)N2CCC(c3nc(C(=O)N4CCN(c5cccc(C(F)(F)F)c5)CC4)cs3)CC2)cc(OC)c1OC [compound 81]	++ (“++” means 80-90%)
O=C(Nc1ccccc1)N1CCC(c2nc(C(=O)N3CCN(c4cccc(C(F)(F)F)c4)CC3)cs2)CC1 [compound 134]	+ (“+” stands for 50-80% inhibition)
O=C(Nc1cccc(F)c1)N1CCC(c2nc(C(=O)N3CCN(c4cccc(C(F)(F)F)c4)CC3)cs2)CC1 [compound 142]	++ (“++” means 80-90%)
O=C(Nc1ccc(F)cc1)N1CCC(c2nc(C(=O)N3CCN(c4cccc(C(F)(F)F)c4)CC3)cs2)CC1 [compound 143]	+ (“+” stands for 50-80% inhibition)

Same assay, conditions: compounds of formula (Ib); TNF-α stimulated reporter cells; test concentration not given

SMILES	Biological activity (NF-κB inflammation assay, inhibition)
Cc1sc(C2CCN(C(=O)c3ccccc3OC(F)(F)F)CC2)nc1CC(=O)N1CCN(c2cccc(C(F)(F)F)c2)CC1 [compound 103]	++ (“++” means 80-90%)
Cc1sc(C2CCN(C(=O)c3ccccc3OC(F)(F)F)CC2)nc1CC(=O)N1CCN(c2cccc(Cl)c2)CC1 [compound 128]	+++ (“+++” stands for 90-100% inhibition)
